Test results published in patent publication US11673898B2, “Substituted inhibitors of menin-MLL and methods of use” (Kura Oncology, Inc., priority 2016, dated 2023).
Like-named read-outs stand apart in the source and are kept apart here.

Key:
Menin MLL 4-43 = target: T1, Menin MLL 4-43 (Homo sapiens, UniProt O00255); assay: Fluorescence polarization (FP) competition assay of the menin-MLL interaction; type: binding
T1 sequence (O00255 1-610): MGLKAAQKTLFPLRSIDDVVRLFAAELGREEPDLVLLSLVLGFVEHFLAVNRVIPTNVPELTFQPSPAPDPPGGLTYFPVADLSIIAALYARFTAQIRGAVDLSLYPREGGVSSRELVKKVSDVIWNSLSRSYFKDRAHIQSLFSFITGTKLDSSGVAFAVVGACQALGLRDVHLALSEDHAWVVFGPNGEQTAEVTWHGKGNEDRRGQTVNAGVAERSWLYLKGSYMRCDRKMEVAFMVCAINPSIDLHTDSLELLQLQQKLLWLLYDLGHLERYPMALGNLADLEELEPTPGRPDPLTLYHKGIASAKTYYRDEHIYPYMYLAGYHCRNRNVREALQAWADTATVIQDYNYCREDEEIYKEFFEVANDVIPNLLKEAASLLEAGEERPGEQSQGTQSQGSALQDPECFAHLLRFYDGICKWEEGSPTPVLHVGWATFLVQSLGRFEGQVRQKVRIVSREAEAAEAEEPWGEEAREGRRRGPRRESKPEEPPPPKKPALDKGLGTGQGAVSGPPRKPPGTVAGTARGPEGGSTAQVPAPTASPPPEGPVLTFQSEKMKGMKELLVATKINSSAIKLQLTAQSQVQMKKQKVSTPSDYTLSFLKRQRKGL

MLL-AF9 BMC = assay: Cell proliferation assay (CellTiter-Glo); type: cell-based
Procedure: Example 9: Cell proliferation assay. The ability of a compound of the present disclosure to inhibit the growth of cells, such as human leukemia cell, acute myeloid leukemia cell, cells with an MLL fusion, control cells without an MLL fusion, VCaP, LNCaP, 22RV1, DU145, LNCaP-AR, MV4; 11, KOPN-8, ML-2, MOLM-13, RS4; 11, SEM, bone marrow cells (BMCs), MLL-AF9, MLL-AF4, MLL-ENL, MLL-CBP, MLL-GAS7, MLL-AF1p, MLL-AF6, HM-2, E2A-HLF, REH, U937, K562, KG-1, HL-60 and NB4 cells, is tested using a cell viability assay, such as the Promega CellTiter-Glo® Luminescent Cell Viability Assay (Promega Technical Bulletin, 2015, “CellTiter-Glo® Luminescent Cell Viability Assay”: 1-15, herein incorporated by reference in its entirety). Cells are plated at relevant concentrations, for example about 1×10^5-2×10^5 cells per well in a 96-well plate. A compound of the present disclosure is added at a concentration up to about 2 μM with eight, 2-fold serial dilutions for each compound. Cells are incubated at 37° C. for a period of time, for example, 72 hours, then cells in the control wells are counted. Media is changed to restore viable cell numbers to the original concentration, and compounds are re-supplied. Proliferation is measured about 72 hours later using Promega CellTiter-Glo® reagents, as per kit instructions.

MV4; 11-luc tumors = assay: Efficacy study in xenotransplantation mouse model of MLL leukemia (luminescence); type: in vivo; settings: NSG mice, 120 mg/kg b.i.d. oral gavage, 6 days of treatment
Procedure: Example 20: Efficacy study in xenotransplantation mouse model ofMLL leukemia. […] Luciferase expressing human MV4; 11 leukemia cells (MV4; 11-luc) were engrafted intravenously via tail vein injection (1×10^7 cells/animal) When the mean luminescence of the cells reached approximately 1.5×10^6, the tumor-bearing mice were randomly assigned to a vehicle control or a compound treatment group (5 animals per group). Animals in each of the treatment groups were administered a different compound of the present disclosure by oral gavage (120 mg/kg b.i.d, 150 mg/kg b.i.d., 200 mg/kg b.i.d., or 200 mg/kg q.d.). Body weight was measured daily, while mean luminescence was measured 6 days after initiating the treatment with compound or vehicle.

HL-60 cells = assay: MTT cell proliferation assay, control cell line; type: cell-based; settings: HL-60 cells (control)
Procedure: (§1) Example 18: Cell proliferation assays. The ability of a compound of the present disclosure to inhibit the growth of cells was tested in both MLL leukemia cell lines (e.g., MV4; 11, MOLM13 and/or KOPN8) and control cell lines (e.g., K562, REH, U937, KG-1, and/or HL-60) using the MTT cell proliferation assay (ATCC® 30-1010K). […] Cells were plated at about 1×10^5 cells per well in a 96-well plate. A compound of the present disclosure was added at a concentration up to about 2 μM with seven, 2-fold serial dilutions for each compound. Cells were incubated at 37° C. for 72 hours, then cells in the control wells were counted. Media was changed to restore viable cell numbers to the original concentration, and compounds were re-supplied. Proliferation was measured 96 hours later using MTT reagents, as per kit instructions. […] The GIso value of a compound of the present disclosure, such as Compound D of FIG. 11, was 10 nM in MV4; 11 cells (MLL-AF4 AML), 17 nM in MOLM13 cells (MLL-AF9 AML), 18 nM in KOPN8 (MLL-ENL AML) cells, greater than 2000 nM in HL-60 cells, and greater than 2000 nM in U937 cells. REH, K562, KG-1, and U937 cells are control cell lines without MLL fusions.

U937 cells = assay: MTT cell proliferation assay, control cell line; type: cell-based
Procedure: as §1

[1] = test system: MV4; 11 cells (MLL-AF4 AML); assay: MTT cell proliferation assay; type: cell-based, human
Procedure: as §1

[2] = test system: MLL fusion protein target genes HOXA9, DLX2, MEIS1 and differentiation marker CD11B; assay: qRT-PCR gene expression in bone marrow samples of treated xenotransplantation mice; type: in vivo, mouse; settings: Day 7 of treatment, qRT-PCR normalized to GAPDH
Procedure: Animals were sacrificed on Day 7 of treatment and bone marrow samples collected and prepared for gene expression analysis. Expression levels of MLL fusion protein target genes HOXA9, DLX2, and/or MEIS1 were measured by qRT-PCR and are presented in FIG. 6, FIG. 9 and FIG. 12 as fold changes normalized to GAPDH expression.

MOLM13 cells = assay: Survival study in xenotransplantation MOLM13 xenograft model; type: in vivo, mouse
Procedure: For survival studies in the xenotransplantation MOLM13 xenograft model, 6 to 8-week old female NSG mice were intravenously injected with 0.5×10^6 MOLM13 cells harboring […] translocation. At day 4 after transplantation, treatment was initiated with Compound C, 75 mg/kg, b.i.d., p.o. or vehicle (20% 2-hydroxypropyl-b-cyclodextrin with 5% cremophore) and was continued for 16 consecutive days in the compound treated mice or until terminal leukemia developed in the vehicle-treated mice.
Similarly, a 120 mg/kg b.i.d. treatment regimen of Compound D was initiated on day 6 after MOLM13 transplantation and continued for 16 consecutive days in the compound treated mice or until terminal leukemia developed in the vehicle-treated mice.

[3] = test system: MOLM13 cells (MLL-AF9 AML); assay: MTT cell proliferation assay; type: cell-based
Procedure: as §1

[4] = test system: KOPN8 (MLL-ENL AML) cells; assay: MTT cell proliferation assay; type: cell-based
Procedure: as §1

[5] = fluorescence polarization assay, read-out: Menin MLL 4-43 IC50

`Cc1nc(NC2CCN(Cc3ccc4c(cc(C#N)n4C[C@H](C)N4CCC(S(C)(=O)=O)CC4)c3C)CC2)c2cc(CC(F)(F)F)sc2n1` [Compound 165] gave an IC50 (Menin MLL 4-43; [5]) of less than 0.05 µM, an IC50 (Menin MLL 4-43; read-out: IC50 value (ability to disrupt the menin-MLL interaction, per Example 6)) of less than 0.05 µM and a GI50 (MLL-AF9 BMC) of less than 0.01 µM. The “Tumor growth (luminescence) relative to vehicle control” value (MV4; 11-luc tumors) was “inhibited tumor growth and induced tumor regression”.
With `CNS(=O)(=O)N1CCN([C@@H](C)Cn2c(C#N)cc3c(C)c(CN4CCC(Nc5nc(OC)nc6sc(CC(F)(F)F)cc56)CC4)ccc32)CC1` [Compound 205] the IC50 (Menin MLL 4-43; [5]) was less than 0.05 µM and the GI50 (MLL-AF9 BMC) was less than 0.01 µM.
`CNc1nc(NC2CCN(Cc3ccc4c(cc(C#N)n4C[C@H](C)N4CCC(C)(O)CC4)c3C)CC2)c2cc(CC(F)(F)F)sc2n1` [Compound 207] showed an IC50 (Menin MLL 4-43; [5]) of less than 0.05 µM and a GI50 (MLL-AF9 BMC) of less than 0.01 µM.
Work on `CNS(=O)(=O)C1CCN([C@@H](C)Cn2c(C#N)cc3c(C)c(CN4CCC(Nc5nc(OC)nc6sc(CC(F)(F)F)cc56)CC4)ccc32)CC1` [Compound 214] yielded an IC50 (Menin MLL 4-43; [5]) of less than 0.05 µM and a GI50 (MLL-AF9 BMC) of less than 0.01 µM.
With `CNC(=O)C1CN([C@@H](C)Cn2c(C#N)cc3c(C)c(CN4CCC(Nc5nc(NC)nc6sc(CC(F)(F)F)cc56)CC4)ccc32)CCO1` (some centres unmarked) [Compound 217] the IC50 (Menin MLL 4-43; [5]) was less than 0.05 µM and the GI50 (MLL-AF9 BMC) was 0.01 to 0.05 µM.
`Cc1nc(NC2CCN(Cc3ccc4c(cc(C#N)n4C[C@H](C)N4CCC(S(C)(=O)=O)CC4)c3C)CC2)c2cc(CC(F)(F)F)sc2n1` [Compound D] gave a GI50 (HL-60 cells) greater than 2 µM, a GI50 (U937 cells) greater than 2 µM and a GI50 [1] of 0.01 µM. The “Expression level of HOXA9” value [2] was “substantially reduced”, the “Expression level of MEIS1” value [2] was “substantially reduced” and the “Expression of differentiation marker CD1 lb” value [2] was “elevated”. It also gave a Median survival time (MOLM13 cells; NSG mice, 120 mg/kg b.i.d., 16 consecutive days from day 6 after MOLM13 transplantation) of 24 days, a Survival benefit (MOLM13 cells; versus vehicle control group) of 75% and a Survival benefit (MOLM13 cells; versus vehicle control group (16 days)) of 18 days. The GI50 [3] was 0.017 µM and the GI50 [4] was 0.018 µM.
